The target in the assay is T1, human Kv4.3/KChIP2.2 potassium channel (Homo sapiens, UniProt Q9UK17).
T1 construct: expressed in transfected cells
T1 sequence (Q9UK17 1-655): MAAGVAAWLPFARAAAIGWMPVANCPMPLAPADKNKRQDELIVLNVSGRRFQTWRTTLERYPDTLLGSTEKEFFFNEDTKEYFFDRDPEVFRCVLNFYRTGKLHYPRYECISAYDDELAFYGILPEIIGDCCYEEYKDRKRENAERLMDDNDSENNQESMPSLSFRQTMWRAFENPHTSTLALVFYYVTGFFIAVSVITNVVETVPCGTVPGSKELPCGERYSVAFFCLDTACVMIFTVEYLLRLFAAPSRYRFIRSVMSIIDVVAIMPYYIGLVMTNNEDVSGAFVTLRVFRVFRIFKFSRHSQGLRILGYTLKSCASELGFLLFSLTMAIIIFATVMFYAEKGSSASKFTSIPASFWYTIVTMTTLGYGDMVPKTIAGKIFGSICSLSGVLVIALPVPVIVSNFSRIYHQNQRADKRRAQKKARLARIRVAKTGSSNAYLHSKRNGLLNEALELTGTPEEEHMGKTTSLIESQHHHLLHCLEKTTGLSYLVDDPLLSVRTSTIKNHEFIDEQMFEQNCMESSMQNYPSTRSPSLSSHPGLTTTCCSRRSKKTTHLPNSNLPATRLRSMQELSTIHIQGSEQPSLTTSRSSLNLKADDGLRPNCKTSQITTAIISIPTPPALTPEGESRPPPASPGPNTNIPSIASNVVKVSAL
T1 sequence (Q9NS61 1-270 partner): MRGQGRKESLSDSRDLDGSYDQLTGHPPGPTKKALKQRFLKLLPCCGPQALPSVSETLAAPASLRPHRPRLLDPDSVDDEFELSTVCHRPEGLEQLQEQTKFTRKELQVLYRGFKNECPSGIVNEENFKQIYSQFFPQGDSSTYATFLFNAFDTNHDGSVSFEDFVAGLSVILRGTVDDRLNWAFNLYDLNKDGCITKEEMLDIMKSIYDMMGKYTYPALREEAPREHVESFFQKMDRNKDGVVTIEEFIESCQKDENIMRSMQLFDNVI
Description: Whole cell patch clamp, CHO-K1 cells stably expressing Kv4.3/KChIP2.2. To be noted: for remaining activity at 1 µM: CHO-K1. The format is cell-based. A digest of the protocol:
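Whole-cell patch clamp at 20-25 °C, bath pH 7.4 with 4 mM KCl, pipette 130 mM KCl/10 mM EGTA/5 mM Na2ATP. Compound at […] (≤0.1% DMSO), n=2; pulses from −100 mV to +40 mV for 300 ms at 0.1 Hz, P/n (n=5) leak-corrected, cells with 1–50 nA currents only.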
(In general: In patch-clamp work, channel activity is measured electrically.)

[1] abbreviates: read-out: Kv4.3 charge in %: remaining current measured after application of the compound and relative to the blank.
Where [2] appears, read: read-out: Kv4.3 peak in %: remaining peak height measured after application of the compound and relative to the blank.
The mark [3] stands for this setting: Table 6, estimated from 2 μM, hill=1, ymax=100, read-out: IC50 (μM) Kv4.3.
Setting [4] is: Table 12, read-out: Kv4.3 charge IC50.

Read-outs that look alike come from different tables or passages of the source.

`Cc1c(C(=O)NCc2ccc(F)c(C(F)(F)F)c2)sc2ccc(Cl)cc12` [Compound 107, 5-chloro-3-methyl-benzo[b]thiophene-2-carboxylic acid 4-fluoro-3-trifluoromethyl-benzylamide]: the remaining activity at 1 µM amounted to 30% under setting [1] and 87% under setting [2].
As a reminder, the IC50 is the concentration that gives 50% inhibition. As to “5-chloro-benzofuran-2- carboxylic acid [3- (10,11-dihydro- dibenzo[a,d]cyclohepten- 5-ylidene)-propyl]- methyl-amide [Compound 5]”, the IC50 is, setting by setting: under setting [3], 16 µM; under setting [4], 16 µM.
Turning to `C[C@@H](NC(=O)c1cc2cc(Cl)ccc2o1)c1ccc([N+](=O)[O-])cc1` [Compound 1, 5-chloro-benzofuran-2-carboxylic acid [(R)-1-(4-nitro-phenyl)-ethyl]-amide], the half-inhibitory concentration (IC50) under setting [4] was 2.08 µM.
For the molecule `O=C(NCc1ccc(OC(F)(F)F)cc1)c1cc2cc(Cl)ccc2o1` [Compound 89, 5-chloro-benzofuran-2-carboxylic acid 4-trifluoromethoxy-benzylamide], the remaining activity at 1 µM came to 37% under setting [1] and 77% under setting [2].
On to “5-chloro-benzofuran-2- carboxylic acid 2,4- dimethoxy- benzylamide [Compound 2]”, for which the 50% inhibitory concentration (IC50) is 1.75 µM under setting [3]; 1.75 µM (Table 9, read-out: IC50 (μM) Kv4.3); 1.75 µM under setting [4].

Values taken from patent US20080039442A1, “Compounds With Kv4 Ion Channel Activity” (Devgen NV, priority 2004, published 2008).
